According to paper PMC9605374 (Marine Drugs, 2022):

Legend:
caspase-3 in 22Rv1 cells = assay: Western blotting, caspase-3 cleavage; type: cell-based, human; settings: 22Rv1, 48 h after drug exposure
Procedure: We examined several time points, specifically, 15 min, 2 h, and 48 h (Figure 6).
Figure 6 Validation of kinome analysis data. 22Rv1 cells were treated with 1 µM or 10 µM of NB for the indicated time. The protein expression was analyzed by Western blotting using total protein load equal to 30 µg/slot. α-Tubulin was used as a loading control.
The Western blot assay was executed as previously described: 1 × 10^6 cells were seeded in Petri dishes (ø 6 cm, 5 mL/dish) and incubated overnight. On the next day, the cells were treated with the compounds in fresh culture media (5 mL/dish) for the indicated time. Next, cells were harvested with a cell scraper and lysed in lysis buffer including protease and phosphatase inhibitors cocktail (Roche, Mannheim, Germany). Cell debris were removed from the protein lysates via centrifugation. Afterwards, the cell-free protein mixtures were separated in gradient ready-made Mini-PROTEAN® TGX Stain-Free^TM gels (Bio-Rad, Hercules, CA, USA) using SDS-PAGE (sodium dodecylsulfate polyacrylamide gel electrophoresis). Then, the proteins were blotted onto ø 0.2 µm pore PVDF membrane. The membrane was blocked and consequently treated with primary and secondary antibodies for protein detection. The signals were detected using the ECL chemiluminescence system (Thermo Scientific, Rockford, IL, USA).

PC3-DR cells = assay: Drug combination study NB with docetaxel, MTT assay, SynergyFinder 2.0; type: cell-based; settings: Homo sapiens, 24 h
Procedure: Thus, drug-resistant PC3-DR cells were treated with docetaxel in combination with NB (Figure 9). Potential synergism between NB and docetaxel was measured by the Chou–Talalay method as described before.
Figure 9 Combinational treatment on PC3-DR cells with NB and docetaxel. […] MTT assay was used to examine cellular viability. Number of replicates n = 3. (A) The heatmap represents cytotoxicity (viability inhibition) of the individual drugs or their combinations. (B,C) To calculate and visualize in 2D (B) or 3D (C) the effect of the drug combination (synergism/additive effect/antagonism), the SynergyFinder v. 2.0 software (Network Pharmacology for Precision Medicine in the Research Program of System Oncology, Faculty of Medicine at University of Helsinki, Helsinki, Finland) and a ZIP reference model were used. Green regions indicate antagonism, white regions refer to additive effect, and red regions indicate synergism.
The experiments were carried out as previously reported. […] 22Rv1 cells (6 × 10^3 cells/well in 96-well plates) were simultaneously treated with NB and docetaxel; or pretreated with MAPK inhibitors for 1 h following treatment with NB in the total media volume of 100 µL/well. Following 24 h of incubation, the viability of the cells treated with individual drugs as well as their combinations was determined using MTT assay. […] Red areas (positive δ-values) and green areas (negative δ-values) indicate synergism and antagonism, respectively.

prostate cancer cells = assay: MTT assay, mean IC50 in cancer cell panel and selectivity index; type: cell-based, human
Source text: To examine the anticancer potential and selectivity of NB, we used a panel of six human prostate cancer cell lines, harboring different levels of treatment resistance to representatively reflect the heterogeneity of the disease. […] Additionally, four human noncancer cells lines were utilized in order to determine the selectivity of NB towards prostate cancer cells, i.e., prostate noncancer PNT2 and RWPE-1 cells, human embryonic kidney HEK 293T cells, and human fibroblasts MRC-9. The different cell lines were treated with NB and the cell viability was examined using MTT assay (Figure 1). The mean IC50 of NB and docetaxel (used as a reference substance) in noncancerous cell lines was divided by the mean IC50 in the prostate cancer cell lines to determine the selectivity index (SI).
The MTT assay was used to monitor the effect of the drugs on cell viability in terms of metabolic activity, as previously reported. First, preincubation of the cells in 96-well plates (6 × 10^3 cells/well in 100 μL/well) was performed overnight in the correspondent culture medium. Next, the medium was exchanged for fresh medium containing the investigated compounds or a vehicle (100 μL/well). Cells were then incubated for 48 h, unless otherwise stated. Then, 10 μL/well of 3-(4,5-dimethylthiazol-2-yl)-2,5-diphenyltetrazolium bromide reagent (MTT, 5 mg/mL) were added. After 2–4 h of additional incubation the media was removed, and the plates were dried. Finally, 50 μL/well of DMSO were added to solve the formed formazan crystals produced by the metabolic active cells and Infinite F200PRO reader (TECAN, Männedorf, Switzerland) was used to measure the cell viability. The results were proceeded with a GraphPad Prism software v.9.1.1 (GraphPad Software, San Diego, CA, USA). Cells treated with the solvent of the drugs alone were used as a control (100% alive cells). The effect of the drugs on cell viability is represented as IC50.

COc1ccc(C2SSC34CC5(O)C(Cl)C=CC(O)C5ON3C(=O)C2N(C)C4=O)c(O)c1OC (stereo not shown) [NB, N-methylpretrichodermamide B]
caspase-3 cleavage (caspase-3 in 22Rv1 cells): caspase-3 cleavage that was observed | inhibition at 0.22 µM (PC3-DR cells): 9.85% | inhibition at 0.67 µM (PC3-DR cells): 15.5% | inhibition at 2 µM (PC3-DR cells): 14.3% | inhibition at 6 µM (PC3-DR cells): 17.2% | IC50 (prostate cancer cells; Homo sapiens, mean over PC3, PC3-DR, DU145, 22Rv1, VCaP, LNCaP, 48 h, MTT): 6.46 µM | Selectivity Index (SI) (prostate cancer cells; [mean IC50 in noncancer cells]/[mean IC50 in cancer cells]): 2.4
